Test results as given in patent US8680251B2, “Triterpenoid 2-deoxy glycosides, method of preparation thereof and use thereof as medicaments” (Univerzita Palackeho V Olomouci, priority 2008, dated 2014).

Assays:
[1] = test system: MCF-7 (human breast adenocarcinoma, p53 wild type); assay: Cytotoxic MTT test, MCF-7; format: cell-based; conditions: 72 h
Text: (§1) Cytotoxic MTT test on cell lines derived from normal tissues and tumors were used for assessing the antitumor activity of the novel compounds in vitro. We used namely the lines K562 (human myeloid leukemia), K562-tax (human myeloid leukemia resistant to taxol and overexpressing the protein of multiple drug resistance PgP), CEM (T-lymfoblastic leukemia), CEM-DNR-bulk (T-lymfoblastic leukemia resistant to doxorubicin, lacking the expression of the target gene for topoisomerase II alfa inhibitors and expressing the multiple drug resistance protein MRP1), line A549 (human lung adenocarcinoma), line HT-29 (human colorectal adenocarcinoma), MCF-7 (human breast adenocarcinoma, p53 wild type), HCT116 p53wt (human colorectal adenocarcinoma, wild-type p53), HCT116 p53mut (human colorectal adenocarcinoma with mutated p53), U87Mg (human glioblastoma). Expression characteristics, sensitivity profiles to classical antitumor drugs and methodology of the cytotoxic MTT test were repeatedly published (Nosková V. et al., Neoplasma 2002, S arek J. et al., J. Med. Chem., 2003, Dzubák P. et al., Bioorg. Med. Chem., 2006).
(§2) The MTT test was carried out according to the following procedure. The tested compound in six dilutions (final concentration of 250 μmol/l, another five concentrations were obtained by 4-fold, 16-fold, 64-fold, 256-fold and 1024-fold dilution of this solution) was added to tissue culture of cells in the cultivation plate wells. Each concentration was tested in doublet. The cell suspension was incubated in the environment containing the tested compound for 72 h at 37° C., in 5% CO2 atmosphere and 100% humidity. MTT—[3-(4,5-dimethylthiazol-2-yl)-2,5-difenyl-2H-tetrazolium bromid]—was then added to each well and the incubation was continued for additional 4 h. The incubation was finished by an addition of sodium dodecansulphonate and the percentage of surviving cells was determined spectrophotometrically at 540 nm. The concentration lethal for 50% of the tumor cells—IC50—was calculated from dose-response curves.

PC-3 = assay: Cytotoxic MTT test, PC-3; format: cell-based; conditions: PC-3 cells, 72 h
[2] = test system: HCT116 p53mut (human colorectal adenocarcinoma with mutated p53); assay: Cytotoxic MTT test, HCT116 p53mut; format: cell-based; conditions: 72 h
Text: as §1, §2

[3] = test system: HT-29 (human colorectal adenocarcinoma); assay: Cytotoxic MTT test, HT-29; format: cell-based; conditions: HT-29 cells, 72 h
Text: as §1, §2

[4] = test system: CEM-DNR-bulk (T-lymfoblastic leukemia resistant to doxorubicin); assay: Cytotoxic MTT test, CEM-DNR-bulk; format: cell-based; conditions: CEM-DNR-BULK cells, 72 h
Text: as §1, §2

[5] = test system: K562-tax (human myeloid leukemia resistant to taxol); assay: Cytotoxic MTT test, K562-tax; format: cell-based; conditions: K562-tax cells, 72 h
Text: as §1, §2

[6] = test system: K562 (human myeloid leukemia); assay: Cytotoxic MTT test, K562; format: cell-based; conditions: K562 cells, 72 h
Text: as §1, §2

[7] = test system: CEM (T-lymfoblastic leukemia); assay: Cytotoxic MTT test, CEM; format: cell-based; conditions: CEM cells, 72 h
Text: as §1, §2

[8] = test system: U87Mg (human glioblastoma); assay: Cytotoxic MTT test, U87Mg; format: cell-based; conditions: U87Mg cells, 72 h
Text: as §1, §2

[9] = test system: HCT116 p53wt (human colorectal adenocarcinoma, wild-type p53); assay: Cytotoxic MTT test, HCT116 p53wt; format: cell-based; conditions: 72 h
Text: as §1, §2

[10] = Storage stability of cyclodextrin solution; format: physicochemical; conditions: solution of 3a with 2-hydroxypropyl-γ-cyclodextrin in water/propylene glycol, freezer at −20 C, several months
Description: 2-hydroxypropyl-γ-cyclodextrin (7.00 g) was dissolved under vigorous stirring and at the temperature of 50° C. in a mixture of water (14.0 ml) and propylene glycol (6.0 ml). 2-deoxy galactoside 3a (1.00 g) is then added at once into the resulting colourless viscous solution and the mixture is vigorously stirred at the temperature of 50° C. Usually, 20 min is needed for complete dissolution. After complete dissolution of the triterpenoid, the resulting bright solution is cooled down to room temperature, filtered by an injection syringe filter (hydrophilic, pore size 0.22 μm) in order to be sterile and is placed to a refrigerator. […] The thus prepared formulation can be used for oral or, after optionally adding a saline solution, for intravenous administration.

| Structure (SMILES) | IC50 ([1]; MCF-7 cells) | IC50 (PC-3) | IC50 ([2]; HCT116 p53 mut cells) | IC50 [3] | IC50 [4] | IC50 [5] | IC50 [6] | IC50 [7] | IC50 [8] | IC50 ([9]; HCT116 p53wt cells) | IC50 ([1]; Homo sapiens, MCF7, MCF-7 cells) | IC50 (PC-3; Homo sapiens) | IC50 ([2]; Homo sapiens, HCT-116, HCT116 p53 mut cells) | IC50 ([3]; Homo sapiens) | IC50 ([5]; Homo sapiens) | IC50 ([6]; Homo sapiens) | IC50 ([7]; Homo sapiens, CCRF-CEM) | IC50 ([8]; Homo sapiens, U-87 MG) | IC50 ([9]; Homo sapiens, HCT-116, HCT116 p53wt cells) | decomposition on storage [10] |
| --- | --- | --- | --- | --- | --- | --- | --- | --- | --- | --- | --- | --- | --- | --- | --- | --- | --- | --- | --- | --- |
| CC(=O)OC[C@H]1O[C@H](OC[C@@]23CC[C@]4(C)C(CCC5[C@@]6(C)CC[C@H](OC(C)=O)C(C)(C)C6CC[C@]54C)C2=C(C(C)C)C(=O)C3)C[C@@H](OC(C)=O)[C@H]1OC(C)=O (stereo partly shown) [Compound 1a] | 11.4 µM | 23.5 µM | 8.8 µM | 11.4 µM | 12.5 µM | 9.8 µM | 2.4 µM | 1.8 µM | ≥ 250 µM | 7.9 µM |  |  |  |  |  |  |  |  |  |  |
| CC(=O)OC[C@H]1O[C@H](OC[C@@]23CC[C@]4(C)C(CCC5[C@@]6(C)CC[C@H](OC(C)=O)C(C)(C)C6CC[C@]54C)C2=C(C(C)C)C(=O)C3)C[C@@H](Br)[C@@H]1OC(C)=O (stereo partly shown) [Compound 1c] | 35.2 µM | ≥ 250 µM | 14 µM | 40.9 µM | 27 µM | 22.6 µM | 9 µM | 3.8 µM | ≥ 250 µM | 19.1 µM |  |  |  |  |  |  |  |  |  |  |
| CC(=O)OC[C@H]1O[C@H](OC[C@@]23CC[C@]4(C)C(CCC5[C@@]6(C)CC[C@H](OC(C)=O)C(C)(C)C6CC[C@]54C)C2=C(C(C)C)C(=O)C3)C[C@@H](OC(C)=O)[C@@H]1OC(C)=O (stereo partly shown) [Compound 1b] | 17 µM | 39.3 µM | 12.4 µM | 10.1 µM | 41.5 µM | 9.5 µM | 6.4 µM | 9.2 µM | ≥ 250 µM | 8.6 µM |  |  |  |  |  |  |  |  |  |  |
| COC(=O)[C@@]12CC[C@]3(C)C(CCC4[C@@]5(C)CC[C@H](O[C@@H]6C[C@@H](O)[C@H](O)[C@@H](CO)O6)C(C)(C)C5CC[C@]43C)C1=C(C(C)C)C(=O)C2 (stereo partly shown) [Compound 3b] | 18.4 µM | 36.4 µM | 21 µM | 18.9 µM | 25 µM | 12.9 µM | 11.6 µM | 6.2 µM | 42.7 µM | 11.5 µM |  |  |  |  |  |  |  |  |  |  |
| COC(=O)[C@@]12CC[C@]3(C)C(CCC4[C@@]5(C)CC[C@H](OC6CC(OC(C)=O)C(OC(C)=O)C(COC(C)=O)O6)C(C)(C)C5CC[C@]43C)C1=C(C(C)C)C(=O)C2 (stereo partly shown) [Compound 2b] |  |  |  |  | 25 µM |  |  |  |  |  | 2.5 µM | 22.1 µM | 3.5 µM | 2.4 µM | 3 µM | 0.6 µM | 0.6 µM | ≥ 250 µM | 1.6 µM |  |
| COC(=O)[C@@]12CC[C@]3(C)C(CCC4[C@@]5(C)CC[C@H](O[C@@H]6C[C@@H](O)[C@@H](O)[C@@H](CO)O6)C(C)(C)C5CC[C@]43C)C1=C(C(C)C)C(=O)C2 (stereo partly shown) [Compound 3a] | 13.6 µM | 11.2 µM | 17.5 µM | 17.8 µM | 34.4 µM | 15.9 µM | 11.5 µM | 4.7 µM | 53 µM | 10.3 µM |  |  |  |  |  |  |  |  |  | without any detectable decomposition |
